Test results from ChEMBL document CHEMBL3832037, “DailyMed|setid=7FCE939E-C38E-497F-BA3F-E7B6BA44BFD9 | SIMVASTATIN - simvastatin tablet, film coated|Contract Pharmacy Services-PA”.
“And” between values parts separate entries of the source, which are not always exact repeats. Equal values may be shown once.

How the values were obtained:
Homo sapiens [1] = assay: Effect of the co-administered drugs on the AUC and Cmax of simvastatin and simvastatin acid. The geometric mean AUC and Cmax ratio (Ratio: with/without co-administered drug) for simvastatin and simvastatin acid following multpile dose co-administration of simvastatin with different drugs.; assay type: ADME, organism-based; conditions: in vivo, po, dose 20 mg, dosed compound id 2, dosed compound name SIMVASTATIN, regimen Every 24h, tissue Plasma
Homo sapiens [2] = assay: Effect of co-administered drugs on the AUC and Cmax for Simvastatin, and its active metabolite Simvastatin acid. The geometric mean AUC and Cmax ratio (Ratio: with/without co-administered drug) for Simvastatin acid following single dose co-administration of Simvastatin with different drugs.; assay type: ADME, organism-based; conditions: in vivo, po, dosed compound id 2, dosed compound name SIMVASTATIN, regimen Single dose, tissue Plasma
[3] = dose 20 mg, interact cpd dose 2 g
[4] = dose 20 mg, interact cpd dose 237 mL, inter cpd dosed level low, inter cpd dos duration 3 days
[5] = dose 40 mg, interact cpd dose 600 mg, inter cpd dos duration 3 days
[6] = dose 60 mg, interact cpd dose 200 mL, inter cpd dosed level high, inter cpd dos duration 2 days
[7] = dose 80 mg, interact cpd dose 10 mg, inter cpd dos duration 10 days
[8] = dose 80 mg, interact cpd dose 120 mg, inter cpd dos duration 10 days
[9] = dose 80 mg, interact cpd dose 160 mg, inter cpd dos duration 14 days, study dosing duration 7 days
[10] = dose 80 mg, interact cpd dose 200 mg, inter cpd dos duration 4 days
[11] = dose 80 mg, interact cpd dose 240 mg, inter cpd dos duration 3 days

| Ratio Cmax (Homo sapiens [1]; interact cpd dose 200 mg, inter cpd dos duration 4 days) | Ratio AUC (Homo sapiens [1]; interact cpd dose 1250 mg, inter cpd dos duration 14 days, study dosing duration 28 days) | Ratio AUC (Homo sapiens [2]; [3]) | Ratio Cmax (Homo sapiens [2]; [3]) | Ratio AUC (Homo sapiens [2]; [4]) | Ratio AUC (Homo sapiens [2]; [5]) | Ratio Cmax (Homo sapiens [2]; [5]) | Ratio AUC (Homo sapiens [2]; [6]) | Ratio AUC (Homo sapiens [2]; [7]) | Ratio Cmax (Homo sapiens [2]; [7]) | Ratio AUC (Homo sapiens [2]; [8]) | Ratio Cmax (Homo sapiens [2]; [8]) | Ratio AUC (Homo sapiens [2]; [9]) | Ratio Cmax (Homo sapiens [2]; [9]) | Ratio AUC (Homo sapiens [2]; [10]) | Ratio Cmax (Homo sapiens [2]; [10]) | Ratio Cmax (Homo sapiens [2]; [11]) | Ratio AUC (Homo sapiens [2]; dose 80 mg, interact cpd dose 240 mg, inter cpd dos duration 7 days) | Ratio Cmax (Homo sapiens [2]; [6]) | Ratio AUC (Homo sapiens [2]; [11]) | SMILES |
| --- | --- | --- | --- | --- | --- | --- | --- | --- | --- | --- | --- | --- | --- | --- | --- | --- | --- | --- | --- | --- |
| 6.2 | 6 | 1.4 | 1.08 | 1.9 | 1.35 | 0.91 | 16 | 1.77 | 1.47 | 3.1 | 2.88 | 0.89 | 0.83 | 8.9 | 5.3 and 13.1 | 2.1 | 2.5 |  |  | CCC(C)(C)C(=O)O[C@H]1C[C@@H](C)C=C2C=C[C@H](C)[C@H](CC[C@@H]3C[C@@H](O)CC(=O)O3)[C@H]21 [SIMVASTATIN] |
|  |  | 1.6 | 1.84 | 1.3 | 2.85 | 2.18 |  | 1.58 | 1.56 | 2.69 | 2.69 | 0.64 | 0.89 | 12 | 15 and 13.1 | 2.4 |  | 7 | 2.3 | CCC(C)(C)C(=O)O[C@H]1C[C@@H](C)C=C2C=C[C@H](C)[C@H](CC[C@@H](O)C[C@@H](O)CC(=O)O)[C@H]21 [TENIVASTATIN] |
